Experiment: Solubility of non-cyano containing pyrethroids in non-polar solvents
Type: physicochemical
Experimental: Specifically, samples were prepared in 4 ounce glass bottles by combining the non-cyano containing pyrethroids Bifenthrin Technical (supplied by FMC Corporation) and Permethrin Technical sold by Gharda USA, Inc with various non-polar solvents at 10%, 25% and 50% rates by mass (total mass of each sample being 40 grams) so that the 10% formulation contained 4 g of the pyrethroid and 36 g solvent; the 25% formulation contained 10 g of the pyrethroid and 30 g solvent; and the 50% formulation contained 20 g of the pyrethroid and 20 g solvent. Each of the resulting solutions was stirred vigorously in the bottles until a clear solution was obtained. The initial temperatures of the solutions in each of bottles was recorded before the bottles were heated on a laboratory hot plate Each of the solutions was stirred constantly while the solution was being heated on the hot plate and the solutions were frequently observed for signs of any visible separation between the solvent and the solute. […] The final temperature of the solutions in each of the bottles was recorded and it was noted that the temperature required to achieve full miscibility of the pyrethroids in the solvents was up to about 80° C.
In the following Table III, each of the non-cyano containing pyrethroids that were tested and each of the non-polar solvents which were employed with such pyrethroids are listed as well as the initial temperature of the solution and the final temperature resulting in full miscibility of the components.

[1] = Canola Oil (Stepsol ROW-W), 10% pyrethroid by mass
[2] = Canola Oil (Stepsol ROW-W), 25% pyrethroid by mass
[3] = Canola Oil (Stepsol ROW-W), 50% pyrethroid by mass
[4] = Polybutene H-7, 10% pyrethroid by mass
[5] = Polybutene H-7, 25% pyrethroid by mass
[6] = Polybutene H-7, 50% pyrethroid by mass
[7] = Polybutene H-8, 10% pyrethroid by mass
[8] = Polybutene H-8, 25% pyrethroid by mass
[9] = Polybutene H-8, 50% pyrethroid by mass
[10] = Polybutene L-14, 10% pyrethroid by mass
[11] = Polybutene L-14, 25% pyrethroid by mass
[12] = Polybutene L-14, 50% pyrethroid by mass
[13] = Polybutene L-50, 10% pyrethroid by mass
[14] = Polybutene L-50, 25% pyrethroid by mass
[15] = Polybutene L-50, 50% pyrethroid by mass
[16] = Safflower Oil, 10% pyrethroid by mass
[17] = Safflower Oil, 25% pyrethroid by mass
[18] = Safflower Oil, 50% pyrethroid by mass

## CC1(C)C(C=C(Cl)Cl)C1C(=O)OCc1cccc(Oc2ccccc2)c1 (stereo not shown) [Permethrin Tech., permethrin]
[1]
  Final Temp. (resulting in full miscibility): 26 °C
[2]
  Final Temp. (resulting in full miscibility): 27 °C
[3]
  Final Temp. (resulting in full miscibility): 30 °C
[4]
  Final Temp. (resulting in full miscibility): 29 °C
[5]
  Final Temp. (resulting in full miscibility): 33 °C
[6]
  Final Temp. (resulting in full miscibility): 50 °C
[7]
  Final Temp. (resulting in full miscibility): 51 °C
[8]
  Final Temp. (resulting in full miscibility): 54 °C
[9]
  Final Temp. (resulting in full miscibility): 62 °C
[10]
  Final Temp. (resulting in full miscibility): 26 °C
[11]
  Final Temp. (resulting in full miscibility): 28 °C
[12]
  Final Temp. (resulting in full miscibility): 31 °C
[13]
  Final Temp. (resulting in full miscibility): 35 °C
[14]
  Final Temp. (resulting in full miscibility): 51 °C
[15]
  Final Temp. (resulting in full miscibility): 54 °C
[16]
  Final Temp. (resulting in full miscibility): 80 °C
[17]
  Final Temp. (resulting in full miscibility): 80 °C
[18]
  Final Temp. (resulting in full miscibility): 80 °C

## Cc1c(COC(=O)[C@H]2[C@@H](/C=C(/Cl)C(F)(F)F)C2(C)C)cccc1-c1ccccc1 [Bifenthrin Tech., bifenthrin]
[1]
  Final Temp. (resulting in full miscibility): 45 °C
[2]
  Final Temp. (resulting in full miscibility): 57 °C
[3]
  Final Temp. (resulting in full miscibility): 74 °C
[4]
  Final Temp. (resulting in full miscibility): 45 °C
[5]
  Final Temp. (resulting in full miscibility): 41 °C
[6]
  Final Temp. (resulting in full miscibility): 41 °C
[7]
  Final Temp. (resulting in full miscibility): 37 °C
[8]
  Final Temp. (resulting in full miscibility): 50 °C
[9]
  Final Temp. (resulting in full miscibility): 36 °C
[10]
  Final Temp. (resulting in full miscibility): 30 °C
[11]
  Final Temp. (resulting in full miscibility): 40 °C
[12]
  Final Temp. (resulting in full miscibility): 43 °C
[13]
  Final Temp. (resulting in full miscibility): 37 °C
[14]
  Final Temp. (resulting in full miscibility): 35 °C
[15]
  Final Temp. (resulting in full miscibility): 43 °C
[16]
  Final Temp. (resulting in full miscibility): 80 °C
[17]
  Final Temp. (resulting in full miscibility): 80 °C
[18]
  Final Temp. (resulting in full miscibility): 80 °C
Over a range of concentrations
  solubility and stability in polybutene L-14: soluble and stable

— patent publication US20080103048A1, “Methods for the production of granular composite pesticidal compositions and the compositions produced thereby” (priority 2006, published 2008)
